This note sets out measurements from US7435727B2, “Method for isolating an intestinal cholesterol binding protein” (Sanofi-Aventis Deutschland GmbH, priority 2002, dated 2008).

Assay [1] deals with 145 kDa binding protein for cholesterol absorption inhibitors. As to the kind of experiment: Photoaffinity labeling with biotin-tagged C-4 and extraction with streptavidin beads. Also noted: species or system rabbit. The method, then: 10 Samples of rabbit ileal brush border membrane vesicles (200 µg of protein) were incubated with 200 μM of the biotin-tagged cholesterol inhibitor C-4 in 10 mM Tris/Hepes buffer (pH 7.4)/100 mM NaCl/100 mM mannitol for 30 min in the dark at 20° C. followed by irradiation at 254 nm for 30 sec in a Rayonet RPR-100 photochemical reactor equipped with 4 RPR 2537 Å-lamps. After collecting, the vesicles were washed 3 times with 2 ml Tris/Hepes buffer (pH 7.4)/300 mM mannitol. The final pellet was suspended in 2 ml of “solubilization buffer” for 1 hour at 4° C. After centrifugation, the clear supernatant was mixed with 0.5 ml of streptavidin-agarose beads and kept under stirring at 4° C. for 2 hours. After centrifugation, the beads were incubated with 2 ml 10 mM Tris/Hepes buffer (pH 7.4)/300 mM mannitol/1% n-octylglucoside/4 mM PMSF/4 mM iodacetamide/4 mM EDTA/for 10 min at 4° C. followed by centrifugation. After repeating this procedure twice, proteins were eluted from the streptavidin-agarose beads with 3 portions a 2 ml of the above buffer containing 5 mM biotin. From all eluates aliquots were removed for the determination of the enzymatic activity of aminopeptidase N and sucrase and for analysis by SDS-PAGE. For final purification the biotin eluates containing the covalently modified 145 kDa binding protein for cholesterol absorption inhibitors was achieved by preparative SDS gel electrophoresis as described above.
Rabbit small intestinal BBMV were incubated with 200 μM of C-4 and crosslinking was achieved by ultraviolet irradiation at 254 nm. After solubilization the covalently modified proteins containing the biotin-tagged 2-azetidinone cholesterol absorption inhibitors were extracted with streptavidin-beads. After intensive washing bound proteins were eluted with a 10 mM solution of biotin and analyzed by SDS-PAGE. […] Therefore, the 145 kDa binding protein could only be purified from those anatomical sites where intestinal cholesterol absorption occurs, the duodenum, jejunum and ileum. […]

For assay [2] the test system is unchanged. As to the kind of experiment: Photoaffinity labeling of small intestinal BBMV with [3H]C-1 in the presence of competitor. Particulars: rabbit small intestinal BBMV, increasing concentrations of competitor. The method, then:
8 Samples of rabbit ileal brush border membrane vesicles (250 μg of protein) were incubated with 66 nM (0.3 μCi) of [^3H]C-1 in 10 mM Tris/Hepes buffer (pH 7.4)/100 mM NaCl/100 mM mannitol for 30 min at 20° C. in the dark. After irradiation for 30 sec at 254 nm in a Rayonet RPR 100 photochemical reactor equipped with 4 RPR 2537 Å lamps (The Southern Ultraviolet Company, Hamden, Conn., USA) the samples were collected and after centrifugation the membrane vesicles were resuspended in 2 ml 10 mM Tris/Hepes buffer (pH 7.4)/300 mM mannitol and centrifugated after 20 min at 20° C. This procedure was repeated three times. The resulting pellet was solubilized with 2 ml “solubilization buffer”. After centrifugation, a 40 μl aliquot of the supernatant was removed and analyzed by SDS PAGE and subsequent slicing of the gel for incorporation of radioactivity into membrane proteins.
(§1) For a one-step purification of the target-protein for cholesterol absorption inhibitors we have coupled the biotin-containing photolabile group N-(biotinyl)-4-azidophenyl alanine via a spacer to the para-position of the N-phenyl or benzylamino ring of 2-azetidinone cholesterol absorption inhibitors.

Assay [3] relates to intestinal cholesterol absorption. As to the kind of experiment: Inhibition of intestinal cholesterol absorption (modified Zilversmit/Hughes method). It counts as in vivo. The conditions noted are these: NMRI mice, application of the biotin-tagged photoaffinity label. The method, then:
Intestinal cholesterol absorption was determined by a modification of the Zilversmit/Hughes method. Male NMRI mice (Charles River Deutschland GmbH, Salzfeld, Germany) kept on regular chow (Altronin®, Lage, Germany) were starved for 12 hours. Then, 0.5 ml of a solution of 0.5% methylcellulose/5% Solutol (BASF, Ludwigshafen, Germany) as vehicle with or without 3 mg of the respective cholesterol absorption inhibitor were applied by gavage to each animal followed by 0.25 ml of Intralipid® (Pharmacia & Upjohn, Erlangen, Germany) solution containing 0.24 μCi [^14C]cholesterol and 0.25 μCi [^3H]sitosterol. The animals (five mice per group) were kept on metabolism cages and feces were collected. After 24 hours the animals were killed and the radioactivity in the feces and the liver was determined by combustion analysis.
as §1

Regarding `O=C1[C@H](CC[C@H](O)c2ccc(F)cc2)[C@@H](c2ccc(O)cc2)N1c1ccc(F)cc1` [Ezetimibe, reference compound], the “amount of 145 kDa protein extractable with streptavidin beads” value in assay [1] (competitor present during photolabeling with C-4, 200 μM for cholesterol absorption inhibitors) is recorded as “reduced”.

On to `COc1ccc(C2C(CC[C@H](O)c3ccccc3)C(=O)N2c2ccc(NC(=O)CCCCNC(=O)C(Cc3ccc(N=[N+]=[N-])cc3)NC(=O)CCCCC3SCC4NC(=O)NC43)cc2)cc1` (some centres unmarked) [C-4, 5-(2-Oxo-hexahydro-thieno[3,4-d]imidazol-6-yl)-pentanoic acid-[2-(4-azido-phenyl)-1-(4-{4-[3-(3-hydroxy-3-phenyl-propyl)-2-(4-methoxy-phenyl)4-oxo-azetidin-1-yl]-phenylcarbamoyl}-butylcarbamoyl)-ethyl]-amid], for which the “145 kDa protein retarded by streptavidin beads after labeling of membranes from other organs” value in assay [1] (BBMV from stomach, cecum, colon, rectum, kidney, liver or adipocytes) is recorded as “no 145 kDa protein was retarded by streptavidin beads”. The “proteins retained by the streptavidin-beads after crosslinking” value in assay [1] (rabbit small intestinal BBMV, 200 μM C-4, ultraviolet irradiation at 254 nm, SDS-PAGE) is “Predominantly one protein of Mr 145 kDa was retained”. Further, in assay [2], the “extent of labeling of the 145 kDa-protein by [3H]C-1” value is “concentration-dependent decrease”. Further, in assay [3], the intestinal cholesterol absorption result was “dose-dependently inhibited”.
